# Results as given in patent US11192932B2, “Heparin-binding domain of IGFBP-2 in the treatment of metabolic disorders” (Amolyt Pharma, priority 2018, dated 2021).
# “Also recorded” adds a separate entry of the source. No end group written: not given here. *: point of attachment. Stearoyl = CCCCCCCCCCCCCCCCCC(=O)*
# What was measured:
# [1] = test system: ob/ob mice; experiment: Intraperitoneal glucose tolerance test (IPGTT) in ob/ob mice after 15 days of treatment; format: in vivo, mouse; conditions: 3 mg/kg subcutaneously twice daily for 15 days, overnight fasted, glucose 1 g/kg i.p., vs vehicle
# Procedure: Data shown are blood glucose levels (Mean±SEM) 45 min after intraperitoneal glucose tolerance test (IPGTT). (n=5 in each group; ***: p value <0.001).
# After being acclimatized 7 days to the laboratory conditions, nine-week-old male B6. V-Lepob/J. mice (Charles River) were subcutaneously administered with vehicle (NaCl 0.9%) or with a peptide as set forth in SEQ ID NO: 73 (C18:0-HLGLEEPKK) at 3 mg/kg (n=5 animals for each group) twice daily for 15 days. On day 15, fasted (overnight) mice were injected intraperitoneally with glucose at 1 g/kg. Plasma blood glucose (expressed as mmol/L) was recorded at 45 minutes post glucose injection.
# [2] = test system: 3T3-LI adipocytes; experiment: [3H]-2-deoxyglucose uptake by fully differentiated 3T3-LI adipocytes; format: cell-based, mouse; conditions: 3 μg/ml for 24 hours
# Procedure: The cells were exposed to the test compounds at a concentration of 3 μg/ml for 24 hours before testing for [^3H]-2-deoxyglucose uptake.
# 3T3-LI cells are a mouse fibroblast cell line which when cultured under specific conditions, differentiate into adipocytes.
# Differentiation of 3T3-LI cells into adipocytes was achieved using the following protocol. 3T3-L1 cells were seeded in 24-well plates and cultured in 3T3-L1 maintenance medium (DMEM containing 10% fetal bovine serum, 4 mM L-glutamine 1 mM, sodium pyruvate) until the cells were 100% confluent. The cells were then fed with 3T3-L1 maintenance medium and cultured for a further 48 h. To initiate differentiation into adipocytes, the medium was changed to Differentiation medium 1 (DMEM containing 10% fetal bovine serum, 4 mM L-glutamine, 1 mM sodium pyruvate, 0.5 mM IBMX, […]), and cultured for a further 2 days. The medium was then changed to Differentiation medium 2 (DMEM containing 10% fetal bovine serum, 4 mM L-glutamine, 1 mM sodium pyruvate, 1 mg/ml insulin), and cultured for a further 2 days. The medium was then changed to Adipocyte Maintenance medium (DMEM containing 10% fetal bovine serum, 4 mM L-glutamine, 1 mM sodium pyruvate), and cultured for a further 7 days. During this time, the medium was changed every other day. The now fully differentiated adipocytes were utilized for glucose uptake experiments (day 11 from initiation of differentiation). Stock solutions of the HBD1 peptides to be tested were prepared by dilution with 0.9% NaCl solution under sterile conditions in a laminar flow cabinet to a concentration of 1 mg/ml, based on net peptide content. The solutions were homogenized by gentle inversion. Test items were prepared from the stock solutions, and remaining stock solution was aliquoted and stored at −20° C. and used without repeated freeze-thaw cycles.
# Glucose uptake experiments were carried our using the following protocol. Prior to beginning the experiment, 100 ml of Krebs Ringer bicarbonate buffer (KRBB)(25 mM Hepes pH 7.4, 118 mM NaCl, 5 mM NaHCO3, 4.7 mM KCl, 1.2 mM KH2PO4, 1.2 mM MgSO4, 2.5 mM CaCl2, 0.2% BSA—Filtered using a 0.2 μm filter) and 100 ml of Incubation medium (DMEM containing 4 mM L-glutamine, 1 mM sodium pyruvate, 1% penicillin streptomycin, 0.2% BSA—Filtered using a 0.2 μm filter) were pre-warmed to 37° C., and 500 ml of KRBB was chilled on ice. Stock solutions of test compounds were diluted to 3 μg/ml final concentrations in pre-warmed Incubation medium and in pre-warmed KRBB. Insulin (positive control), previously diluted 1:1000 in sterile 0.9% NaCl, was further diluted in 10 ml of both medium and buffer to a final concentration of 1 nM. All traces of the medium were carefully removed from the cells using a fine tip. […]
# [3] = test system: AMPK; experiment: AMPK phosphorylation (immunoblot anti-pAMPK T172) in C2C12 myotubes; format: cell-based, mouse; conditions: C2C12 myotubes, peptide incubated 8 hours (FIG. 7)
# Procedure: In particular: HBD1 SEQ ID NO: 73 (C18:0-HLGLEEPKK). The AMPK pathway is both insulin and IGF1 independent, but acts ultimately to induce GLUT4 translocation to the cell membrane to facilitate the uptake and metabolism of glucose.
# For signaling studies the cells were prepared the same way except 6-well plates were used. After 6 days incubation in differentiating medium, the cells were washed with serum-free medium. The various treatments were then added in serum free medium containing 0.1% BSA. HBD1 peptides were added and incubated for 8 hours. When utilizing IGF-I, incubation was for 15 minutes after IGF-1 addition. Following incubation the cells were lysed in RIPA buffer and sonicated. The cell lysate was centrifuged and the supernatant analyzed for either Akt or AMPK by SDS PAGE using a 10% gel followed by immunoblotting with the appropriate antibody.
# To examine further the intracellular transduction pathways utilized by the HBD1 peptides, following treatment with HBD1 peptide SEQ ID NO: 73 (C18:0-HLGLEEPKK), cell lysate proteins, were separated by SDS PAGE and immunoblotted with anti-pAMPK T172.
substance,measurement,setting,value
C18:0-HLGLEEPKK (Stearoyl-HLGLEEPKK) [SEQ ID NO: 73],blood glucose levels 45 min after intraperitoneal glucose tolerance test (IPGTT),[1],reduced the plasma glucose levels
same,blood glucose levels 45 min after intraperitoneal glucose tolerance test (IPGTT),[1]; listed as acylated HBD1 (3-11) fragment,improves glucose intolerance
same,glucose uptake by 3T3-LI adipocytes,[2],stimulated increased glucose uptake
same,phosphorylated AMPK (T172),[3],dose-dependent increase in phosphorylated AMPK; also recorded: dose-dependent phosphorylation (activation) of the AMPK pathway
